The test system of data set [1] is DNA. Particulars: cited from earlier work.
The test system of a further data set is renal cancer. The note with it: hamster, in vivo; cited from earlier work.
For the next data set, the system named is renal DNA. The note with it: in vivo; cited from earlier work.
Data set [2] concerns DNA. Particulars: cited from earlier work. The source holds these as a separate data set.
The subject of another data set is CYP1B1 mRNA. The note with it: primary cultures of normal human epidermal keratinocytes, 24-hour treatment; cited from earlier work.
The conditions of data set [3]: single oral doses; cited from earlier work.
The subject of data set [4] is incidence of breast cancer. The note with it: large study of use to prevent and treat osteoporosis; cited from earlier work.
The next data set has as its system estrogen receptors. The note with it: preclinical data; cited from earlier work.
The conditions of data set [5]: cited from earlier work.
Data set [6] deals with rat mammary carcinoma induced by dimethylbenzanthracene (DMBA). Particulars: cited from earlier work.
For data set [7] the following is noted: cited from earlier work. The source holds these as a separate data set.
The test system of another data set is breast cancer incidence. Particulars: women at increased risk of the disease; cited from earlier work.
The next data set concerns COMT. The note with it: cited from earlier work.

Consider 14 molecules from patent US20090068653A1, “BIOCHEMICAL AND GENETIC ANALYSIS FOR PREDICTION OF BREAST CANCER RISK” (priority 2006, published 2009).

Where a name gives a salt, the structure may show the parent alone. Read-outs that look alike come from different tables or passages of the source.

`C[C@]12CC[C@@H]3C4=C(CC[C@H]3[C@@H]1CC[C@@H]2O)C(=O)C(=O)C=C4` [E2-3,4Q]: in the data set with DNA [1], the “levels of depurinating DNA adducts” value is reported as “two to three orders of magnitude higher”.
Take `C[C@]12CC[C@@H]3c4ccc(O)c(O)c4CC[C@H]3[C@@H]1CC[C@@H]2O` [4-OHE2]: the “induction of renal cancer” value with renal cancer was “induced renal cancer”. Moreover, in the data set on renal DNA, the “levels of oxidized base 8-hydroxy-deoxyguanosine, oxidative DNA damage” value (shortened to “levels … oxidative DNA damage”) was “significantly increased”. Further, the DNA single-strand breaks result with DNA [2] is listed as “induced DNA single-strand breaks”.
Regarding `Clc1cc2c(cc1Cl)Oc1cc(Cl)c(Cl)cc1O2` [TCDD, 2,3,7,8-tetrachlorodibenzo-p-dioxin], the “increase of CYP1B1 mRNA levels” value in the data set with CYP1B1 mRNA is “approximately 100 fold”.
Take `C[C@]12CC[C@@H]3C4=C(CC[C@H]3[C@@H]1CCC2=O)C(=O)C(=O)C=C4` [E1-3,4Q]: the “levels of depurinating DNA adducts” value with DNA [1] is on record as “two to three orders of magnitude higher”.
Consider `O=C(c1ccc(OCCN2CCCCC2)cc1)c1c(-c2ccc(O)cc2)sc2cc(O)ccc12` [Raloxifene], for which the apparent oral clearance in data set [3] was 44.1 L/kg per hour. The “incidence of breast cancer” value in data set [4] was “reduce the incidence of breast cancer”. Also, in the data set on estrogen receptors, the “estrogen receptor action in uterine and breast tissues” value was “estrogen antagonist”.
Turning to `O=C(c1ccc(OCCN2CCCCC2)cc1)c1c(-c2ccc(O)cc2)sc2cc(O)ccc12` [Raloxifene HCl, methanone, [6-hydroxy-2-(4-hydroxyphenyl)benzo[b]thien-3-yl]-[4-[2-(1-piperidinyl)ethoxy]phenyl]-hydrochloride], in [5], the solubility in water result was “very slightly soluble”.
Turning to `C[C@]12CC[C@@H]3c4cc(O)c(O)cc4CC[C@H]3[C@@H]1CC[C@@H]2O` [2-OHE2], the “induction of renal cancer” value in the data set with renal cancer was “not”. Also, the “levels … oxidative DNA damage” value in the data set on renal DNA is on record as “did not cause oxidative DNA damage”. The DNA single-strand breaks result in the data set on DNA [2] is reported as “negligible effect”.
Turning to `CC/C(=C(\c1ccccc1)c1ccc(OCCN(C)C)cc1)c1ccccc1` [Tamoxifen, reference compound], the “induction of rat mammary carcinoma induced by DMBA” value in data set [6] (rat) is “inhibits”. Further, the “regression of DMBA-induced tumors in situ” value in data set [6] (rats) is reported as “causes the regression”. For the same molecule, the “average steady-state plasma concentration” value in [7] (10 mg tamoxifen twice daily for 3 months, patients) is 120 ng/mL; in [7] (20 mg tamoxifen once daily for 3 months) it was 122 ng/mL. For the same molecule, the “time to steady state concentrations after initiation of therapy” value in data set [7] (in vivo) is “about 4 weeks”. For the same molecule, in data set [7] (single oral dose of 20 mg tamoxifen), the “average peak plasma concentration” value is listed as 40 ng/mL. Moreover, the “time of peak plasma concentration after dosing” value in data set [7] (single oral dose of 20 mg) was “approximately 5 hours”. For the same molecule, in the data set with breast cancer incidence, the “reduction of breast cancer incidence” value is 49%.
`C[C@]12CC[C@@H]3c4ccc(O)c(O)c4CC[C@H]3[C@@H]1CCC2=O` [4-OHE1]: the “induction of renal cancer” value with renal cancer is given as “induced renal cancer”. Also, the “levels … oxidative DNA damage” value in the data set with renal DNA is given as “significantly increased”.

B1: 108Val (wt): wild-type COMT enzyme (protein, UniProt P21964 1-271, looked up)
Catechol O-methyltransferase: MPEAPPLLLAAVLLGLVLLVVLLLLLRHWGWGLCLIGWNEFILQPIHNLLMGDTKEQRILNHVLQHAEPGNAQSVLEAIDTYCEQKEWAMNVGDKKGKIVDAVIQEHQPSVLLELGAYCGYSAVRMARLLSPGARLITIEINPDCAAITQRMVDFAGVKDKVTLVVGASQDIIPQLKKKYDVDTLDMVFLDHWKDRYLPDTLLLEECGLLRKGTVLLADNVICPGAPDFLAHVRGSSCFECTHYQSFLEYREVVDGLEKAIYKGPGSEAGP
For orientation: Km means the substrate concentration at which the rate is half of its maximum. As to B1, the Km was 117 µM with COMT (reaction 2-OHE2 → 2-MeOE2, COMT); 51 µM with COMT (reaction 2-OHE2 → 2-OH-3-MeOE2, COMT); 24 µM in the data set with COMT (reaction 4-OHE2 → 4-MeOE2, COMT).

B2: 461Thr-462Ile (wt*): purified recombinant wild-type CYP1A1 enzyme (protein, UniProt P04798 1-512, looked up)
Cytochrome P450 1A1: MLFPISMSATEFLLASVIFCLVFWVIRASRPQVPKGLKNPPGPWGWPLIGHMLTLGKNPHLALSRMSQQYGDVLQIRIGSTPVVVLSGLDTIRQALVRQGDDFKGRPDLYTFTLISNGQSMSFSPDSGPVWAARRRLAQNGLKSFSIASDPASSTSCYLEEHVSKEAEVLISTLQELMAGPGHFNPYRYVVVSVTNVICAICFGRRYDHNHQELLSLVNLNNNFGEVVGSGNPADFIPILRYLPNPSLNAFKDLNEKFYSFMQKMVKEHYKTFEKGHIRDITDSLIEHCQEKQLDENANVQLSDEKIINIVLDLFGAGFDTVTTAISWSLMYLVMNPRVQRKIQEELDTVIGRSRRPRLSDRSHLPYMEAFILETFRHSSFVPFTIPHSTTRDTSLKGFYIPKGRCVFVNQWQINHDQKLWVNPSEFLPERFLTPDGAIDKVLSEKVIIFGMGKRKCIGETIARWEVFLFLAILLQRVEFSVPLGVKVDMTPIYGLTMKHACCEHFQMQLRS
With B2, the Km in the data set with CYP1A1 came out at 17 µM.

B3: 461Asn-462Val: purified recombinant CYP1A1 variant 461Asn-462Val (protein, UniProt P04798 1-512, looked up, variant T461N I462V)
Cytochrome P450 1A1: MLFPISMSATEFLLASVIFCLVFWVIRASRPQVPKGLKNPPGPWGWPLIGHMLTLGKNPHLALSRMSQQYGDVLQIRIGSTPVVVLSGLDTIRQALVRQGDDFKGRPDLYTFTLISNGQSMSFSPDSGPVWAARRRLAQNGLKSFSIASDPASSTSCYLEEHVSKEAEVLISTLQELMAGPGHFNPYRYVVVSVTNVICAICFGRRYDHNHQELLSLVNLNNNFGEVVGSGNPADFIPILRYLPNPSLNAFKDLNEKFYSFMQKMVKEHYKTFEKGHIRDITDSLIEHCQEKQLDENANVQLSDEKIINIVLDLFGAGFDTVTTAISWSLMYLVMNPRVQRKIQEELDTVIGRSRRPRLSDRSHLPYMEAFILETFRHSSFVPFTIPHSTTRDTSLKGFYIPKGRCVFVNQWQINHDQKLWVNPSEFLPERFLTPDGAIDKVLSEKVIIFGMGKRKCIGENVARWEVFLFLAILLQRVEFSVPLGVKVDMTPIYGLTMKHACCEHFQMQLRS
Take B3: in the data set with CYP1A1, the Michaelis constant (Km) turned out to be 23 µM.

B4: 461Asn-462Ile: purified recombinant CYP1A1 variant 461Thr→Asn (protein, UniProt P04798 1-512, looked up, variant T461N)
Cytochrome P450 1A1: MLFPISMSATEFLLASVIFCLVFWVIRASRPQVPKGLKNPPGPWGWPLIGHMLTLGKNPHLALSRMSQQYGDVLQIRIGSTPVVVLSGLDTIRQALVRQGDDFKGRPDLYTFTLISNGQSMSFSPDSGPVWAARRRLAQNGLKSFSIASDPASSTSCYLEEHVSKEAEVLISTLQELMAGPGHFNPYRYVVVSVTNVICAICFGRRYDHNHQELLSLVNLNNNFGEVVGSGNPADFIPILRYLPNPSLNAFKDLNEKFYSFMQKMVKEHYKTFEKGHIRDITDSLIEHCQEKQLDENANVQLSDEKIINIVLDLFGAGFDTVTTAISWSLMYLVMNPRVQRKIQEELDTVIGRSRRPRLSDRSHLPYMEAFILETFRHSSFVPFTIPHSTTRDTSLKGFYIPKGRCVFVNQWQINHDQKLWVNPSEFLPERFLTPDGAIDKVLSEKVIIFGMGKRKCIGENIARWEVFLFLAILLQRVEFSVPLGVKVDMTPIYGLTMKHACCEHFQMQLRS
For B4, in the data set on CYP1A1, the Km came out at 23 µM.

B5: 461Thr-462Val: purified recombinant CYP1A1 variant 462Ile→Val (protein, UniProt P04798 1-512, looked up, variant I462V)
Cytochrome P450 1A1: MLFPISMSATEFLLASVIFCLVFWVIRASRPQVPKGLKNPPGPWGWPLIGHMLTLGKNPHLALSRMSQQYGDVLQIRIGSTPVVVLSGLDTIRQALVRQGDDFKGRPDLYTFTLISNGQSMSFSPDSGPVWAARRRLAQNGLKSFSIASDPASSTSCYLEEHVSKEAEVLISTLQELMAGPGHFNPYRYVVVSVTNVICAICFGRRYDHNHQELLSLVNLNNNFGEVVGSGNPADFIPILRYLPNPSLNAFKDLNEKFYSFMQKMVKEHYKTFEKGHIRDITDSLIEHCQEKQLDENANVQLSDEKIINIVLDLFGAGFDTVTTAISWSLMYLVMNPRVQRKIQEELDTVIGRSRRPRLSDRSHLPYMEAFILETFRHSSFVPFTIPHSTTRDTSLKGFYIPKGRCVFVNQWQINHDQKLWVNPSEFLPERFLTPDGAIDKVLSEKVIIFGMGKRKCIGETVARWEVFLFLAILLQRVEFSVPLGVKVDMTPIYGLTMKHACCEHFQMQLRS
In the case of B5, in the data set on CYP1A1, the Km was 18 µM.
